# Laboratory results: US7108865B2, “Controlled-release dosage forms of azithromycin” (Pfizer Inc, priority 1994, dated 2006)
# Test: Visual Analogue Scale gastrointestinal side effects after 2 hr intravenous infusion (Example 3)
# Type: in vivo, human
# Parameters: key to Mean Cumulative Score (Visual Analogue Scale), abdominal pain / Mean Cumulative Score (Visual Analogue Scale), nausea / Mean Cumulative Score (Visual Analogue Scale), regurgitation / Mean Cumulative Score (Visual Analogue Scale), abdominal cramping: sum over 240 h of 0–10 VAS severity scores, averaged per subject
# Conditions: not corrected for placebo effects; for Incidence of Visual-Analogue-Scale score >1, abdominal cramping / Incidence of Visual-Analogue-Scale score >1, abdominal pain / Incidence of Visual-Analogue-Scale score >1, nausea / Incidence of Visual-Analogue-Scale score >1, regurgitation / Incidence of Visual-Analogue-Scale score >4, abdominal cramping / Incidence of Visual-Analogue-Scale score >4, abdominal pain / Incidence of Visual-Analogue-Scale score >4, nausea / Incidence of Visual-Analogue-Scale score >4, regurgitation: any time during 240 hour post-dose; for Mean Cumulative Score (Visual Analogue Scale), abdominal cramping / Mean Cumulative Score (Visual Analogue Scale), abdominal pain / Mean Cumulative Score (Visual Analogue Scale), nausea / Mean Cumulative Score (Visual Analogue Scale), regurgitation: entire 240 hour post-dose period
# Experimental: Healthy male subjects were divided into four groups. Group A received a 2 hr intravenous infusion of a placebo solution (0 g azithromycin). Group B received a 2 hr intravenous infusion of a 1 g dose of azithromycin. Group C received a 2 hr intravenous infusion of a 2 g dose of azithromycin. Group D received a 2 hr intravenous infusion of a 4 g dose of azithromycin. […] All subjects were dosed after an overnight fast.
# Prior to dosing and each blood sampling time, each subject filled out a questionnaire, which consisted of a series of “Visual Analogue Scales” in which the subject was required to rate, on a scale of 0–10, the severity of certain potential side effects. The subjects were instructed that “0” indicated an absent effect and “10” indicated the worst possible effect. The subjects were instructed to interpolate between 0 and 10 for moderate side effects.
# Analysis of side effect visual-analogue-scale data was carried out in two formats. In the first format (Table VIII), the analysis concentrated on the general incidence of side effects of a particular type. For each side effect type (e.g., abdominal pain), Table VIII reports the number of subjects who reported a score >1 at any time during the 240 hr post-dosing, and the number of subjects who reported a score >4 at any time during the 240 hr post-dosing. This analysis assumes that all […] represent a real side effect occurrence, however mild or severe. A score >4 is presumed to reflect a moderate-to-severe side effect occurrence.
# In the second format (Table IX), the analysis reflects the general severity and duration of side effects. For a particular side effect (e.g., Abdominal Pain) in a particular subject, all visual-analogue-scale scores (over the 240 hr post-dose period) were summed to give a “cumulative score” over the entire time period of evaluation. “Cumulative scores” for all members of a treatment group were summed, and divided by the number of subjects in the group, to a give a Mean Cumulative Score. […] Table IX presents Mean Cumulative Scores for abdominal pain, nausea, regurgitation, and abdominal cramping.
smiles,measurement,setting,value
"CC[C@H]1OC(=O)[C@H](C)[C@@H](O[C@H]2C[C@@](C)(OC)[C@@H](O)[C@H](C)O2)[C@H](C)[C@@H](O[C@@H]2O[C@H](C)C[C@H](N(C)C)[C@H]2O)[C@](C)(O)C[C@@H](C)CN(C)[C@H](C)[C@@H](O)[C@]1(C)O [azithromycin, 9a-aza-9a-methyl-9-deoxo-9a-homoerythromycin A]","Incidence of Visual-Analogue-Scale score >1, abdominal cramping",1 g IV over 2 hr,0/5
same,"Incidence of Visual-Analogue-Scale score >1, abdominal pain",1 g IV over 2 hr,1/5
same,"Incidence of Visual-Analogue-Scale score >1, nausea",1 g IV over 2 hr,0/5
same,"Incidence of Visual-Analogue-Scale score >1, regurgitation",1 g IV over 2 hr,0/5
same,"Incidence of Visual-Analogue-Scale score >4, abdominal cramping",1 g IV over 2 hr,0/5
same,"Incidence of Visual-Analogue-Scale score >4, abdominal pain",1 g IV over 2 hr,0/5
same,"Incidence of Visual-Analogue-Scale score >4, nausea",1 g IV over 2 hr,0/5
same,"Incidence of Visual-Analogue-Scale score >4, regurgitation",1 g IV over 2 hr,0/5
same,"Mean Cumulative Score (Visual Analogue Scale), abdominal cramping","1.0 g IV, n 6",0.5
same,"Mean Cumulative Score (Visual Analogue Scale), abdominal pain","1.0 g IV, n 6",1.5
same,"Mean Cumulative Score (Visual Analogue Scale), nausea","1.0 g IV, n 6",0
same,"Mean Cumulative Score (Visual Analogue Scale), regurgitation","1.0 g IV, n 6",0
same,"Incidence of Visual-Analogue-Scale score >1, abdominal cramping",2 g IV over 2 hr,1/6
same,"Incidence of Visual-Analogue-Scale score >1, abdominal pain",2 g IV over 2 hr,2/6
same,"Incidence of Visual-Analogue-Scale score >1, nausea",2 g IV over 2 hr,4/6
same,"Incidence of Visual-Analogue-Scale score >1, regurgitation",2 g IV over 2 hr,1/6
same,"Incidence of Visual-Analogue-Scale score >4, abdominal cramping",2 g IV over 2 hr,1/6
same,"Incidence of Visual-Analogue-Scale score >4, abdominal pain",2 g IV over 2 hr,1/6
same,"Incidence of Visual-Analogue-Scale score >4, nausea",2 g IV over 2 hr,2/6
same,"Incidence of Visual-Analogue-Scale score >4, regurgitation",2 g IV over 2 hr,0/6
same,"Mean Cumulative Score (Visual Analogue Scale), abdominal cramping","2.0 g IV, n 6",3.8
same,"Mean Cumulative Score (Visual Analogue Scale), abdominal pain","2.0 g IV, n 6",5.7
same,"Mean Cumulative Score (Visual Analogue Scale), nausea","2.0 g IV, n 6",13.2
same,"Mean Cumulative Score (Visual Analogue Scale), regurgitation","2.0 g IV, n 6",0.5
same,"Incidence of Visual-Analogue-Scale score >1, abdominal cramping",4 g IV over 2 hr,4/5
same,"Incidence of Visual-Analogue-Scale score >1, abdominal pain",4 g IV over 2 hr,4/5
same,"Incidence of Visual-Analogue-Scale score >1, nausea",4 g IV over 2 hr,3/5
same,"Incidence of Visual-Analogue-Scale score >1, regurgitation",4 g IV over 2 hr,1/5
same,"Incidence of Visual-Analogue-Scale score >4, abdominal cramping",4 g IV over 2 hr,2/5
same,"Incidence of Visual-Analogue-Scale score >4, abdominal pain",4 g IV over 2 hr,0/5
same,"Incidence of Visual-Analogue-Scale score >4, nausea",4 g IV over 2 hr,2/5
same,"Incidence of Visual-Analogue-Scale score >4, regurgitation",4 g IV over 2 hr,1/5
same,"Mean Cumulative Score (Visual Analogue Scale), abdominal cramping","4.0 g IV, n 5",11.8
same,"Mean Cumulative Score (Visual Analogue Scale), abdominal pain","4.0 g IV, n 5",12.8
same,"Mean Cumulative Score (Visual Analogue Scale), nausea","4.0 g IV, n 5",10.6
same,"Mean Cumulative Score (Visual Analogue Scale), regurgitation","4.0 g IV, n 5",3.8
